# Experimental data published in PMC4792926, “G9a-mediated methylation of ERα links the PHF20/MOF histone acetyltransferase complex to hormonal gene expression” (Nature Communications, 2016).
# Ends that are not written are not given here.
# Experiments:
# [1] = system: ERα on GREB1 and PR promoters; test: ERα ChIP-qPCR in MCF-7 cells; format: cell-based, human; settings: E2, 15 and 45 min
# Experimental: (§1) Human MCF-7, T-47D, U2OS and HEK293T cells (ATCC) were cultured in DMEM (Cellgro) supplemented with 10% fetal bovine serum (FBS, Sigma). For G9a inhibitor treatment, BIX-01294 (Sigma) was added to the medium, at the indicated concentrations, 24 h before the cells were collected. For shRNA knockdown, 293T cells were co-transfected with pMD2.G and pPAX2 (Addgene) together with pLKO-shRNA constructs or a non-targeting pLKO-shRNA (pLKO-shCtrl). Viral supernatants were harvested after 48 h. For infections, MCF-7 or T-47D cells were incubated with viral supernatants in the presence of 8 μg ml^−1 polybrene. After 48 h, puromycin (2 μg ml^−1) was added to the DMEM. Cells were grown, with selection for 5–7 days to select for stable knockdown cells before oestrogen treatment. For oestrogen treatment, cells were starved in phenol red-free DMEM supplemented with 10% charcoal-stripped FBS (Sigma) for 3–4 days, and 10 nM 17β-estradiol (Sigma) or ethanol (vehicle) were added to the medium (3 or 6 h for gene expression studies, and 15 and 45 min for ChIP experiments) before the cells were collected.
# ChIP analysis was performed essentially as described previously. Briefly, cells were crosslinked with 1% formaldehyde for 10 min at room temperature, and the reaction was stopped with 125 mM glycine. Nuclei were isolated by resuspending the cells in swelling buffer containing 5 mM PIPES, pH 8.0, 85 mM KCl, 1% NP-40 and complete protease inhibitors for 20 min at 4 °C. The isolated nuclei were resuspended in nuclei lysis buffer (50 mM Tris, pH 8.0, 10 mM EDTA, 1% SDS) and sonicated using a Bioruptor Sonicator (Diagenode). Samples were immunoprecipitated with 2–4 μg of the appropriate antibodies overnight at 4 °C. Immunoprecipitates were washed twice with dialysis buffer (50 mM Tris pH 8.0, 2 mM EDTA, 0.2% Sarkosyl) and four times with IP wash buffer (100 mM Tris, pH 8.0, 500 mM LiCl, 1% NP-40 and 1% deoxycholic acid sodium salt). After reverse crosslinking was performed, the DNA was eluted and purified using a PCR purification kit (Qiagene). […]
# [2] = system: MCF-7 cells; test: RNA-seq in MCF-7 cells ±E2; format: cell-based, human; settings: 10 nM E2, 3 h
# Experimental: as §1, with “For oestrogen treatment, cells were starved in phenol red-free DMEM supplemented with 10% charcoal-stripped FBS (Sigma) for 3–4 days, and 10 nM 17β-estradiol (Sigma) or ethanol (vehicle) were added to the medium (3 or 6 h for gene expression studies, and 15 and 45 min for ChIP experiments) before the cells were collected.” left out
# RNA-seq samples were sequenced using the Illumina Hiseq 2000, and raw reads were mapped to the human reference genome (hg19) and transcriptome using the RNA-seq unified mapper. Read counts for each transcript were calculated using HTseq v0.6.1 using default parameters. […] For the PHF20 knockdown data set, the common dispersion and tag wise dispersion were calculated using the edgeR ‘estimateCommonDisp' and ‘estimateTagwise-Disp' functions, respectively. […]
# [3] = system: H4K16ac on ERα target gene promoters; test: Histone H4K16ac ChIP-qPCR in MCF-7 cells; format: cell-based, human
# Experimental: as §1
# ChIP analysis was performed essentially as described previously. Briefly, cells were crosslinked with 1% formaldehyde for 10 min at room temperature, and the reaction was stopped with 125 mM glycine. Nuclei were isolated by resuspending the cells in swelling buffer containing 5 mM PIPES, pH 8.0, 85 mM KCl, 1% NP-40 and complete protease inhibitors for 20 min at 4 °C. The isolated nuclei were resuspended in nuclei lysis buffer (50 mM Tris, pH 8.0, 10 mM EDTA, 1% SDS) and sonicated using a Bioruptor Sonicator (Diagenode). Samples were immunoprecipitated with 2–4 μg of the appropriate antibodies overnight at 4 °C. Immunoprecipitates were washed twice with dialysis buffer (50 mM Tris pH 8.0, 2 mM EDTA, 0.2% Sarkosyl) and four times with IP wash buffer (100 mM Tris, pH 8.0, 500 mM LiCl, 1% NP-40 and 1% deoxycholic acid sodium salt). After reverse crosslinking was performed, the DNA was eluted and purified using a PCR purification kit (Qiagene). The primer sequences used for ChIP analyses are listed in Supplementary Table 4.
# [4] = system: ERα target genes (GREB1, PR, TFF1); test: qPCR of E2-induced ERα target gene expression in MCF-7 cells; format: cell-based, human; settings: for fold induction of GREB1, PR and TFF1: control (shCtrl) MCF-7, relative to untreated cells
# Experimental: as §1
# (§2) Reverse transcription and real-time PCR were performed as described previously. mRNA was prepared using the RNeasy Plus kit (Qiagen) and reverse transcribed using the First Strand Synthesis kit (Invitrogen). Quantitative real-time RT–PCR (qPCR) was performed on an ABI 7500-FAST Sequence Detection System using the Power SYBR Green PCR Master Mix (Applied Biosystems). Gene expression was calculated following normalization to GAPDH levels using the comparative Ct (cycle threshold) method and is shown as ‘Fold' relative to the expression of each gene in the control cells without E2 treatment that was arbitrarily set as ‘1'. The primer sequences used for RT–PCR are listed in Supplementary Table 5.
# [5] = system: ERα target genes (GREB1, PR, TFF1); test: qPCR of E2-induced ERα target gene expression in T-47D cells; format: cell-based, human; settings: 10 nM E2, 3 or 6 h; G9a-depleted T-47D
# Experimental: as §1, with “For oestrogen treatment, cells were starved in phenol red-free DMEM supplemented with 10% charcoal-stripped FBS (Sigma) for 3–4 days, and 10 nM 17β-estradiol (Sigma) or ethanol (vehicle) were added to the medium (3 or 6 h for gene expression studies, and 15 and 45 min for ChIP experiments) before the cells were collected.” left out
# as §2, with “The primer sequences used for RT–PCR are listed in Supplementary Table 5.” left out
# [6] = system: ERαK235me2; test: Immunofluorescence of ERαK235me2 in MCF-7 cells; format: cell-based, human; settings: 10 nM 17β-estradiol, 45 min; E2-deprived MCF-7
# Experimental: MCF-7 cells were E2-depleted for 3 days and treated with 10 nM 17β-estradiol or ethanol for 45 min. Cells were then fixed in 4% formaldehyde, washed and permeabilized in 0.5% Triton X-100 on ice for 10 min. Cells were then blocked in 3% BSA, incubated with primary antibodies in 3% BSA for 2 h, washed, and probed with fluorescein-conjugated secondary antibodies in 3% BSA for 1 h. Cells on the slide were then washed, covered with mounting medium (with DAPI) and observed using an Olympus confocal microscope FluoView FV1000.
# (d) ERαK235, but not K303, is required for the coactivator function of G9a in an estrogen response element- (ERE) driven luciferase assay. U2OS cells were cotransfected with G9a, NCOA2 and ERα (WT, K235R, or K303R) together with an ERE-Firefly luciferase and a Renilla luciferase, and the luciferase activity was determined 24 hrs after E2 treatment.
# (e) G9a has a catalytic activity-dependent and independent coactivator activity of ERα. U2OS cells were cotransfected with ERα, NCOA2 and […] (WT or H1113K) together with an ERE-Firefly luciferase and a Renilla luciferase, and the luciferase activity was determined as described in the Method section.
# (f) Both the E2-dependent and E2-independent ERα coactivator functions of G9a require the ERαK235 residue. […]
# [7] = system: PHF20 Tudor; test: Peptide pull-down with GST-PHF20 Tudor; format: binding, human; settings: 1 μg biotinylated peptide, 1 μg GST-PHF20 Tudor, 50 mM Tris-HCl pH 7.5, 300 mM NaCl, 0.1% NP-40, overnight
# Experimental: (§3) The pGEX constructs encoding human G9a, ERα and ERα fragments including AF1 (aa 1–190), DBD (aa 175–250), hinge (aa 251–310), DBD+hinge (aa 175–310), LBD (aa 305–596) and the second Tudor domain of PHF20 (aa 58–148) were expressed in E. coli Rosetta (DE3) pLysS cells. After induction with IPTG (0.5 mM) for 16–18 h at 18 °C, cells were collected by centrifugation at 5,000g, lysed by sonication and purified using Glutathione Sepharose 4B beads (GE Healthcare). For the NMR titration assays, PHF20 Tudor was expressed in the ^15NH4Cl-supplemented (Sigma) minimal media, and the GST tag was cleaved with PreScission protease, and the cleaved protein was concentrated using Millipore concentrators (Millipore).
# (§4) For peptide pulldown assays, 1 μg of biotinylated histone and ERα peptides with or without methylation were incubated with 1 μg GST-PHF20 Tudor in binding buffer (50 mM Tris-HCl, pH 7.5, 300 mM NaCl, 0.1% NP-40 and 1 mM PMSF) for overnight. Streptavidin beads (GE Healthcare) were added into the mixture and incubated for 1 h with rotation. The beads were then washed three times, and analysed by SDS−PAGE and western blotting. For the protein domain array, the CADOR 5.0 protein domain array was probed with biotinylated ER peptides as described previously. The protein domains spotted on the CADOR 5.0 array are listed in the Supplementary Fig. 5.
# [8] = system: PHF20 Tudor W97A and Y103A mutants; test: Peptide pull-down with PHF20 Tudor mutants; format: binding, human; settings: W97A and Y103A mutants of PHF20 Tudor
# Experimental: as §3, §4
# [9] = system: PHF20 Tudor; test: 1H,15N HSQC NMR titration of PHF20 Tudor; format: binding, human
# Experimental: as §3
# The ^1H,^15N HSQC spectra of 0.2 mM uniformly ^15N-labelled PHF20 Tudor (in 25 mM Tris-HCl, pH 7.5 buffer, 150 mM NaCl, 5 mM dithiothreitol and ∼8% D2O) were collected at 298 K on a Varian INOVA 600 MHz spectrometer. Binding was monitored by titrating unmodified ERα and ERαK235me2 peptides (aa 228–239) against the PHF20 Tudor domain. NMR data were processed and analysed with NMRPipe and NMRDraw as previously described. NMR assignments for PHF20 Tudor were taken from the Biological Magnetic Resonance Data Bank (BMRB 17673)[31].
# [10] = system: S. pombe SPF30 Tudor; test: Chromatin-associated domain array (CADOR 5.0), SPF30 Tudor; format: binding; settings: biotinylated peptide on CADOR 5.0; K235 methylation-dependent
# Experimental: as §4, with “Fig. 5. […]” for “Fig. 5.”
# (§5) Recombinat Proteins Construct Sources a - Cheryl Arrowsmith d - Jiemin W ong g - Albert Jeltsch j - Judd Rice n - Alla Grishok b - Subhashini Sadasivem e - Or Gozani h - Yi Zhang k - Marc Timmers o - Olli Silvennoinen c - Jocelyn Coté f - Thomas Jenuwein i - Adrian Bird l - Michelle Barton p - Logan Donaldson […]
# (§6) Supplementary Figure 5. Domain layout of the Chromatin-Associated Domain Array […]
# (§7) (1 picture or pasted object on this page, not shown here)
# [11] = system: PHF20/PHF20L Tudor domains; test: Chromatin-associated domain array (CADOR 5.0), PHF20/PHF20L Tudors; format: binding; settings: biotinylated peptide on CADOR 5.0; K235 methylation-dependent
# Experimental: as §4, with “Fig. 5. […]” for “Fig. 5.”
# as §5, §6, §7
# [12] = system: 53BP1 Tudor; test: Chromatin-associated domain array (CADOR 5.0), 53BP1 Tudor; format: binding; settings: biotinylated peptide on CADOR 5.0; K235 methylation-dependent
# Experimental: as §4, with “Fig. 5. […]” for “Fig. 5.”
# as §5, §6, §7
compound,measurement,setting,value
"C[C@]12CC[C@@H]3c4ccc(O)cc4CC[C@H]3[C@@H]1CC[C@@H]2O [E2, 17β-estradiol]",levels of ERα on GREB1 and PR promoters,[1]; G9a-depleted MCF-7,markedly reduced
same,ERα occupancy on the promoters of GREB1 and PR,[1]; PHF20 knockdown MCF-7,no or minimal ERα occupancy was detected
same,ERα on the promoters of GREB1 and PR,[1]; control MCF-7,E2-dependent increase of ERα on the promoters of GREB1 and PR
same,number of E2-activated genes,[2],774 genes
same,E2-dependent H4K16ac and ERα on GREB1 and PR promoters (H4K16ac),"[3]; E2, 15 and 45 min, G9a-depleted MCF-7",markedly reduced
same,E2-dependent increase of H4K16ac on GREB1 and PR promoters,"[3]; E2, 15 and 45 min, PHF20-depleted MCF-7",greatly diminished
same,H4K16ac levels on GREB1 and PR promoters,"[3]; E2, 15 and 45 min, control MCF-7",dramatic increase in H4K16ac levels
same,H4K16ac on genes not regulated by PHF20,"[3]; E2, MCF-7",no apparent H4K16ac signals were detected
same,E2-induced activation of GREB1 and PR on PHF20 depletion,"[4]; 10 nM E2, 3 or 6 h, PHF20 knockdown MCF-7",drastically decreased
same,"fold induction of GREB1, PR and TFF1","[4]; 10 nM E2, 3 h",~4 fold
same,"fold induction of GREB1, PR and TFF1","[4]; 10 nM E2, 6 h",~6 fold
same,E2-induced gene activation on G9a depletion,[5],drastically decreased
same,ERαK235me2 level,[6],increased upon E2 stimulation
"ERαK235me2 peptide: ERα peptide dimethylated at K235; aa 228–239 in NMR titrations, biotinylated in pull-downs (TIDKNRRK(Me2)SCQA; also: biotinylated in pull-downs, end not given here; UniProt P03372 228-239, looked up, fragment)",interaction with PHF20 Tudor (pull-down),[7],strong interaction
same,binding to PHF20 Tudor W97/Y103 mutants (pull-down),[8],abolished the binding
same,chemical shift changes of PHF20 Tudor,"[9]; 0.2 mM 15N-labelled PHF20 Tudor, 25 mM Tris-HCl pH 7.5, 150 mM NaCl, 298 K, 600 MHz",large chemical shift changes
same,"backbone amide resonances A95, W97, Y103, A105, V118, F120, D122-Q126 of PHF20 Tudor","[9]; HSQC titration, 0.2 mM PHF20 Tudor, pH 7.5, 298 K",significant shifting and broadening
"ERα peptide (aa 227–244) bearing dimethylated K235: ERα peptide (aa 227–244) bearing dimethylated K235, biotinylated, used to probe the CADOR array (CTIDKNRRK(Me2)SCQACRLRK; cysteine pairing not given here; also: biotin, end not given here)",recognition by S. pombe SPF30 Tudor,[10],recognized the ERα peptide in a K235 methylation-dependent manner
same,recognition by PHF20/PHF20L Tudor,[11],recognized the ERα peptide in a K235 methylation-dependent manner
same,recognition by 53BP1 Tudor,[12],recognized the ERα peptide in a K235 methylation-dependent manner
